Experimental data: US10618903B2, “Heteroaryl substituted aminopyridine compounds” (BRISTOL-MYERS SQUIBB COMPANY, priority 2015, dated 2020)

Tests used:
[1] = target: IRAK4 (Homo sapiens (Human), UniProt Q9NWZ3); assay: IRAK4 Inhibition Assay; format: biochemical; settings: ATP 500 μM; IRAK4 0.6 nM
Protocol: The assays were performed in U-bottom 384-well plates. The final assay volume was 30 μL prepared from 15 μL additions of enzyme and substrates (fluoresceinated peptide and ATP) and test compounds in assay buffer (20 mM HEPES pH 7.2, 10 mM MgCl2, 0.015% Brij 35 and 4 mM DTT). The reaction was initiated by the combination of IRAK4 with substrates and test compounds. The reaction mixture was incubated at room temperature for 60 min. and terminated by adding 45 μL of 35 mM EDTA to each sample. The reaction mixture was analyzed on the Caliper LABCHIP® 3000 (Caliper, Hopkinton, Mass.) by electrophoretic separation of the fluorescent substrate and phosphorylated product. Inhibition data were calculated by comparison to no enzyme control reactions for 100% inhibition and vehicle-only reactions for 0% inhibition. The final concentrations of reagents in the assays are ATP, 500 μM; FL-IPTSPITTTYFFFKKK peptide 1.5 μM; IRAK4, 0.6 nM; and DMSO, 1.6%.

[2] = tested on: IL-6 levels in human whole blood stimulated with a TLR2 agonist; assay: IRAK4 Whole Blood Assay (lipoteichoic acid/TLR2-stimulated IL-6); format: cell-based; settings: lipoteichoic acid 10 μg/mL, IL-6 readout
Protocol: Human whole blood containing the anti-coagulant ACD-A was plated in 384-well plate (25 μL/well) and incubated with compounds for 60 minutes at 37° C. in a 5% CO2 incubator. The blood was stimulated with a TLR2 agonist, 10 μg/mL final concentration of lipoteichoic acid (Invivogen, San Diego, Calif.) in 25 μL RPMI (Gibco) for 5 hours in a 5% CO2 incubator. At the end of the incubation, plates were centrifuged at 2300 rpm for 5 minutes. Supernatants were harvested and analyzed for IL-6 levels by Flow Cytometry beads assay (BD Biosciences, San Jose, Calif.).

Chain of IRAK4 (Q9NWZ3 whole entry): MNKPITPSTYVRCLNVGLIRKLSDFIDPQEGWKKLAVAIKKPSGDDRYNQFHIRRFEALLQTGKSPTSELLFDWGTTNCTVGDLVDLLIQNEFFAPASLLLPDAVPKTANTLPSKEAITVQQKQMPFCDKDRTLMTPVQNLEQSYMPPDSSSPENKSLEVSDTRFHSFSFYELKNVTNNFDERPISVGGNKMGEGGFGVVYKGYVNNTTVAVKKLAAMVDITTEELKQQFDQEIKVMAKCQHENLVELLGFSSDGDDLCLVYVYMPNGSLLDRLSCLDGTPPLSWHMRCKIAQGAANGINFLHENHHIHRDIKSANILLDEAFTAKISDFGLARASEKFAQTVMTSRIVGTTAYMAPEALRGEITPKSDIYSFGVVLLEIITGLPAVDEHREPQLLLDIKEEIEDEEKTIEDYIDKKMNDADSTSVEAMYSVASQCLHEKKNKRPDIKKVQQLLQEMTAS

Structure (SMILES)	IC50 [1] [nM]	EC50 ([2]; Homo sapiens) [nM]	EC50 [2] [nM]
CC(C)(O)[C@H](F)CNC(=O)c1cnc(-c2cnn3cc(Cl)cnc23)cc1NC1CCCOC1 (single isomer, unassigned) [Example 3]	6	380	
CC(C)(O)[C@H](F)CNC(=O)c1cnc(-c2cnn3cc(Cl)cnc23)cc1NC1CCCOC1 (single isomer, unassigned) [Example 4]	13		680
COC1CC(Nc2cc(-c3cnn4cc(Cl)cnc34)ncc2C(=O)NC[C@@H](F)C(C)(C)O)CC1(F)F (single isomer, unassigned) [Example 13]	7	4450	
CC(C)(O)[C@H](F)CNC(=O)c1cnc(-c2cnn3cc(Cl)cnc23)cc1NC1COCC1(F)F (single isomer, unassigned) [Example 18]	8	1150	
CC(C)(CO)Nc1cc(-c2cnn3cc(Cl)cnc23)ncc1C(=O)NC[C@@H](F)C(C)(C)O [Example 7, (R)-6-(6-chloropyrazolo[1,5-a]pyrimidin-3-yl)-N-(2-fluoro-3-hydroxy-3-methylbutyl)-4-((1-hydroxy-2-methylpropan-2-yl)amino)nicotinamide]	2	570	
CNC(=O)[C@H]1CC[C@H](NC(=O)c2cnc(-c3cnn4cc(Cl)cnc34)cc2NC2CC2)CC1 [Example 25, 6-(6-chloropyrazolo[1,5-a]pyrimidin-3-yl)-4-(cyclopropylamino)-N-((1r,4r)-4-(methylcarbamoyl)cyclohexyl)nicotinamide]	5	460	
CNC(=O)[C@H]1CC[C@H](NC(=O)c2cnc(-c3cnn4cc(Cl)cnc34)cc2NC(C)C)CC1 [Example 27, 6-(6-chloropyrazolo[1,5-a]pyrimidin-3-yl)-4-(isopropylamino)-N-((1r,4r)-4-(methylcarbamoyl)cyclohexyl) nicotinamide]	7	1050	
CC(C)(O)[C@H](F)CNC(=O)c1cnc(-c2cnn3cc(C#N)cnc23)cc1Nc1ccc(C(N)=O)cc1 [Example 112, (R)-4-((4-carbamoylphenyl)amino)-6-(6-cyanopyrazolo[1,5-a]pyrimidin-3-yl)-N-(2-fluoro-3-hydroxy-3-methylbutyl)nicotinamide]		820	
COC(C)(C)[C@H]1CC[C@H](NC(=O)c2cnc(-c3cnc4cc(Cl)cnn34)cc2NC2COC2)CC1 [Example 191, 6-(7-chloroimidazo[1,2-b]pyridazin-3-yl)-N-((1r,4r)-4-(2-methoxypropan-2-yl)cyclohexyl)-4-(oxetan-3-ylamino)nicotinamide]		630	
CC(C)(O)[C@H](F)CNC(=O)c1cnc(-c2cnn3cc(C#N)cnc23)cc1Nc1ccn(CC(F)F)c1 [Example 225, (R)-6-(6-cyanopyrazolo[1,5-a]pyrimidin-3-yl)-4-((1-(2,2-difluoroethyl)-1H-pyrrol-3-yl)amino)-N-(2-fluoro-3-hydroxy-3-methylbutyl)nicotinamide]		80	
CC(C)(O)[C@H](F)CNC(=O)c1cnc(-c2cnn3cc(Cl)cnc23)cc1Nc1ccn(CC(F)F)c1 [Example 228, (R)-6-(6-chloropyrazolo[1,5-a]pyrimidin-3-yl)-4-((1-(2,2-difluoroethyl)-1H-pyrrol-3-yl)amino)-N-(2-fluoro-3-hydroxy-3-methylbutyl)nicotinamide]		250	

Results, then the compound that gave them:

IC50 [1] [nM]	EC50 ([2]; Homo sapiens) [nM]	EC50 [2] [nM]	Structure (SMILES)
6		1090	CC(C)OC1CC(Nc2cc(-c3cnn4cc(Cl)cnc34)ncc2C(=O)NC[C@@H](F)C(C)(C)O)CC1(F)F (single isomer, unassigned) [Example 16]
10		370	CC(C)(O)[C@H](F)CNC(=O)c1cnc(-c2cnn3cc(C#N)cnc23)cc1NC1CCCOC1 (single isomer, unassigned) [Example 94]
6		1160	CC(C)(O)[C@H](F)CNC(=O)c1cnc(-c2cnn3cc(C#N)cnc23)cc1NC1CCCOC1 (single isomer, unassigned) [Example 95]
3	540		CC(C)Nc1cc(-c2cnc3cc(C#N)cnn23)ncc1C(=O)NCC(F)C1CC(C)OC(C)C1 (single isomer, unassigned) [Example 176, 6-(7-cyanoimidazo[1,2-b]pyridazin-3-yl)-N-(2-(2,6-dimethyltetrahydro-2H-pyran-4-yl)-2-fluoroethyl)-4-(isopropylamino)nicotinamide]
2	3170		CCC(C)Nc1cc(-c2cnn3cc(Cl)cnc23)ncc1C(=O)NC[C@@H](F)C(C)(C)O (stereo in doubt) [Example 69, 4-(((R)-sec-butyl)amino)-6-(6-chloropyrazolo[1,5-a]pyrimidin-3-yl)-N—((R)-2-fluoro-3-hydroxy-3-methylbutyl)nicotinamide]
7	2530		CC(C)Nc1cc(-c2cnn3cc(Cl)cnc23)ncc1C(=O)NCCC(C)(C)F [Example 20, 6-(6-chloropyrazolo[1,5-a]pyrimidin-3-yl)-N-(3-fluoro-3-methylbutyl)-4-(isopropylamino)nicotinamide]
7		2530	CC(C)Nc1cc(-c2cnc3cccnn23)ncc1C(=O)NC[C@@H](F)C(C)(C)O [Example 21, (R)—N-(2-fluoro-3-hydroxy-3-methylbutyl)-6-(imidazo[1,2-b]pyridazin-3-yl)-4-(isopropylamino)nicotinamide]
11			CC(C)Nc1cc(-c2cnc3ccc(NCC(C)(C)O)nn23)ncc1C(=O)NC[C@@H](F)C(C)(C)O [Example 151, (R)—N-(2-fluoro-3-hydroxy-3-methylbutyl)-6-(6-((2-hydroxy-2-methylpropyl)amino)imidazo[1,2-b]pyridazin-3-yl)-4-(isopropylamino)nicotinamide]
29			CC(C)Nc1cc(-c2cnc3ccc(N4CC[C@@H](O)C4)nn23)ncc1C(=O)NC[C@@H](F)C(C)(C)O [Example 152, N—((R)-2-fluoro-3-hydroxy-3-methylbutyl)-6-(6-((R)-3-hydroxypyrrolidin-1-yl)imidazo[1,2-b]pyridazin-3-yl)-4-(isopropylamino)nicotinamide]
13			COc1cnn2c(-c3cc(NC(C)C)c(C(=O)NC[C@@H](F)C(C)(C)O)cn3)cnc2c1 [Example 153, (R)—N-(2-fluoro-3-hydroxy-3-methylbutyl)-4-(isopropylamino)-6-(7-methoxyimidazo[1,2-b]pyridazin-3-yl)nicotinamide]
16			COc1cnn2c(-c3cc(NC4COC4)c(C(=O)NC[C@@H](F)C(C)(C)O)cn3)cnc2c1 [Example 154, (R)—N-(2-fluoro-3-hydroxy-3-methylbutyl)-6-(7-methoxyimidazo[1,2-b]pyridazin-3-yl)-4-(oxetan-3-ylamino)nicotinamide]
55			CC(C)Nc1cc(-c2cnc(-c3cccc(C#N)c3)o2)ncc1C(=O)NC[C@@H](F)C(C)(C)O [Example 155, (R)-6-(2-(3-cyanophenyl)oxazol-5-yl)-N-(2-fluoro-3-hydroxy-3-methylbutyl)-4-(isopropylamino)nicotinamide]
	200		CC(C)(C)Nc1cc(-c2cnc3cc(C#N)cnn23)ncc1C(=O)NC[C@@H](F)C(C)(C)O [Example 187, (R)-4-(tert-butylamino)-6-(7-cyanoimidazo[1,2-b]pyridazin-3-yl)-N-(2-fluoro-3-hydroxy-3-methylbutyl)nicotinamide]
